Tested on: astrocytes
Experiment: Lysosomal pH detection (DND-189 fluorescence)
Assay type: cell-based

With O=S(=O)(NCCNC/C=C/c1ccc(Br)cc1)c1cccc2cnccc12 [H-89] the “lysosomal pH (DND-189 fluorescence), co-treatment with PKA inhibitor” value (BafA1 + AMX + H-89) was “abolished the lysosomal acidification effect of AMX”.
In the case of CO/C1=C\C(C)=C\[C@@H](C)[C@@H](O)[C@@H](C)C/C(C)=C/C=C/[C@H](OC)[C@@H]([C@@H](C)[C@@H](O)[C@H](C)[C@@]2(O)C[C@@H](O)[C@H](C)[C@@H](C(C)C)O2)OC1=O [bafilomycin A1], the “lysosomal pH (DND-189 fluorescence)” value (100 nM BafA1, 1-hour exposure) is reported as “markedly alkalinized lysosomes”.
With Nc1ncnc2c1ncn2[C@@H]1O[C@@H]2COP(=O)(O)O[C@H]2[C@H]1O [cAMP, cyclic adenosine monophosphate] the “lysosomal pH (DND-189 fluorescence), reversal of BafA1 effect” value (300 μM cAMP with 100 nM BafA1) was “effectively reversed BafA1-induced alkalization”.
